Test results: ChEMBL document CHEMBL4811252, “Identification of novel 1,3-diaryl-1,2,4-triazole-capped histone deacetylase 6 inhibitors with potential anti-gastric cancer activity” (Eur J Med Chem, 2021)
pIC50: −log10 of the molar value.

Legend:
[1] = molecular target: T1, Histone deacetylase 1 (Homo sapiens, UniProt Q13547); conditions: dose 100.0 nM, time 40.0 min
[2] = molecular target: T2, Protein deacetylase HDAC6 (Homo sapiens) (UniProt Q9UBN7); conditions: Sf9, dose 100.0 nM, time 40.0 min
T2 sequence (whole entry): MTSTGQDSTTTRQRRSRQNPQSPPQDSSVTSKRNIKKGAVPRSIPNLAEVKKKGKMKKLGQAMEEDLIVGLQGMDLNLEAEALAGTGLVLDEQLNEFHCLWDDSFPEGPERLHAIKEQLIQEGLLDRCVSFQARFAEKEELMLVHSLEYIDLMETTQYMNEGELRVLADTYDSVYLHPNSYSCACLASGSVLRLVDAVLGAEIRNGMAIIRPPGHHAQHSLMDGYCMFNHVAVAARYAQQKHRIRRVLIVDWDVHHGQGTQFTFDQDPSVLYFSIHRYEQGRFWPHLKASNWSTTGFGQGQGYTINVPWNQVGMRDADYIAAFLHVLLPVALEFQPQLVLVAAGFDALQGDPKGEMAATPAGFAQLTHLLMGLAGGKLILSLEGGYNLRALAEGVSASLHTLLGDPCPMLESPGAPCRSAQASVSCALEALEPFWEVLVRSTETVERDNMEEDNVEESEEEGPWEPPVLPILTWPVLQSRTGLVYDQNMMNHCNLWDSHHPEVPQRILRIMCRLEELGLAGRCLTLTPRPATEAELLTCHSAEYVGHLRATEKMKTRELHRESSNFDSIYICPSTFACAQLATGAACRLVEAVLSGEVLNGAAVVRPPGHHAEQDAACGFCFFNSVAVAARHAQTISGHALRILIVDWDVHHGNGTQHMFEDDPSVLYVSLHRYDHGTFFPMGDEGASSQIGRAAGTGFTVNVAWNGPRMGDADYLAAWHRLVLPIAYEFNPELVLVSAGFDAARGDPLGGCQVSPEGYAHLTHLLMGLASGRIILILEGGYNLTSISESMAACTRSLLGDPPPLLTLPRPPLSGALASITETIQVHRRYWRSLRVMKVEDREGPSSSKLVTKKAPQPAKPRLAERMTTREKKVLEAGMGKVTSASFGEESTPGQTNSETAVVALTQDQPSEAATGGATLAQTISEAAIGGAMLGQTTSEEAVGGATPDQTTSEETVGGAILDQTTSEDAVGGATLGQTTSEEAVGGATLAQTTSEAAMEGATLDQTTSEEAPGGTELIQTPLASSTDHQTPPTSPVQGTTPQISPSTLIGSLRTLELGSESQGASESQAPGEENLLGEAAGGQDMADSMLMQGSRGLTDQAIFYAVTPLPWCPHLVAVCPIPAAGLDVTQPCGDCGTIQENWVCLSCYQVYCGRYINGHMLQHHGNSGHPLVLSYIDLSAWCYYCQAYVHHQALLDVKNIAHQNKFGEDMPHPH

[3] = system: MGC-803; test: Antiproliferative activity against human MGC803 cells incubated for 72 hrs by MTT assay; assay type: functional, cell-based; conditions: MGC-803, 72 h
[4] = molecular target: T3, Protein deacetylase HDAC6 (Homo sapiens, UniProt Q9UBN7); test: Inhibition of recombinant full length human HDAC6 expressed in baculovirus infected Sf9 cells using Z-(Ac)-Lys-AMC as substrate incubated for 40 mins by fluorescence based assay
T3 sequence (Q9UBN7 whole entry): T2 sequence (whole entry)

[5] = molecular target: T1, Histone deacetylase 1; test: Inhibition of recombinant human HDAC1 using Z-(Ac)-Lys-AMC as substrate incubated for 40 mins by fluorescence based assay

T1 sequence (Q13547 whole entry): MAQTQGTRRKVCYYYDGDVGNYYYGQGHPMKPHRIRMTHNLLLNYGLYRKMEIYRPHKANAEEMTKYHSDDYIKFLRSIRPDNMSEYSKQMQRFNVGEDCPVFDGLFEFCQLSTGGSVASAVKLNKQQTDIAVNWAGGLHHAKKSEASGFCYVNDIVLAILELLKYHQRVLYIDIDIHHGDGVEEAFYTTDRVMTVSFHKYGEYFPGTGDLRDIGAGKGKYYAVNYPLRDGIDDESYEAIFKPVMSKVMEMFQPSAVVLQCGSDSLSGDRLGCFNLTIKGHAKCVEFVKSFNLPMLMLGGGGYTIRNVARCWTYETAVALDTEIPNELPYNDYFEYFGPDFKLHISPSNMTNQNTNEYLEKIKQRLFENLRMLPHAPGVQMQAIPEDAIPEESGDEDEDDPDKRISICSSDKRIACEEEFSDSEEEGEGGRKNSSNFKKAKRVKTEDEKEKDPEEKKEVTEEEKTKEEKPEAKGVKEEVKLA

inhibition [1] | inhibition [2] | pIC50 [3] | pIC50 [4] | pIC50 [5] | Structure (SMILES)
-0.55% | -3.6% |  |  |  | CNC(=O)c1ccc(NCc2nc(-c3ccccc3)nn2-c2ccccc2)cc1
13.2% | 54.7% |  |  |  | O=C(NO)c1ccc(NCc2nc(-c3ccc(Br)cc3)nn2-c2ccccc2)cc1
11.2% | 40.2% |  |  |  | O=C(NO)c1ccc(NCc2nc(-c3cccc4cnccc34)nn2-c2ccccc2)cc1
8.3% | 39.8% |  |  |  | O=C(NO)c1ccc(NCc2nc(-c3ccc(Cl)s3)nn2-c2ccccc2)cc1
38.4% | 79.6% | < 4.70 | 7.47 | 5.82 | O=C(NO)c1ccc(NCc2nc(-c3cccs3)nn2-c2ccc(O)cc2)cc1
17% | 61.2% | 5.24 | 6.94 | 5.73 | O=C(NO)c1ccc(NCc2nc(-c3cccc(Cl)c3)nn2-c2ccccc2)cc1
10.8% | 38.3% |  |  |  | CCc1ccc(-n2nc(-c3ccccc3)nc2CNc2ccc(C(=O)NO)cc2)cc1
4.9% | 41.6% |  |  |  | O=C(NO)c1ccc(NCc2nc(-c3ccc(C(F)(F)F)cc3)nn2-c2ccccc2)cc1
11% | 53% |  |  |  | Cc1ccc(-n2nc(-c3ccccc3)nc2CNc2ccc(C(=O)NO)cc2)cc1C
13.8% | 55.8% |  |  |  | O=C(NO)c1ccc(NCc2nc(-c3ccc(Br)o3)nn2-c2ccccc2)cc1
7.6% | 34.5% |  |  |  | O=C(NO)c1ccc(NCc2nc(-c3ccc(Cl)c(Cl)c3)nn2-c2ccccc2)cc1
16.3% | 67.6% | 4.98 | 6.56 | 5.74 | O=C(NO)c1ccc(NCc2nc(-c3ccccc3)nn2-c2ccc(F)cc2)cc1
17% | 57.1% |  |  |  | Cc1ccccc1-n1nc(-c2ccccc2)nc1CNc1ccc(C(=O)NO)cc1
16.7% | 59.9% |  |  |  | O=C(NO)c1ccc(NCc2nc(-c3ccco3)nn2-c2ccccc2)cc1
12.8% | 38.9% |  |  |  | O=C(NO)c1ccc(NCc2nc(-c3ccccc3)nn2-c2ccc(C(F)(F)F)cc2)cc1
20.3% | 62.2% | < 4.70 | 6.65 | 5.51 | Cc1ccc(-c2nc(CNc3ccc(C(=O)NO)cc3)n(-c3ccccc3)n2)cc1
22.3% | 60.7% |  |  |  | Cc1ccc(-c2nc(CNc3ccc(C(=O)NO)cc3)n(-c3ccccc3)n2)o1
15.6% | 75% | < 4.70 | 6.73 | 5.42 | O=C(NO)c1ccc(NCc2nc(-c3ccccc3Cl)nn2-c2ccccc2)cc1
18.2% | 65.9% | 5.03 | 5.76 | 5.49 | O=C(NO)c1ccc(NCc2nc(-c3ccccc3)nn2-c2ccc(Br)cc2)cc1
12.9% | 57.7% |  |  |  | O=C(NO)c1ccc(NCc2nc(-c3cccnc3)nn2-c2ccccc2)cc1
17% | 64.6% | 5.02 | 6.17 | 5.51 | O=C(NO)c1ccc(NCc2nc(-c3ccccc3)nn2-c2ccccc2Cl)cc1
18.4% | 66% | 4.88 | 6.41 | 5.41 | Cc1cccc(-n2nc(-c3ccccc3)nc2CNc2ccc(C(=O)NO)cc2)c1
33.4% | 77.6% | < 4.70 | 6.79 | 5.54 | COc1ccc(-c2nc(CNc3ccc(C(=O)NO)cc3)n(-c3ccccc3)n2)cc1
19.5% | 67.2% | 5.22 | 6.74 | 5.62 | O=C(NO)c1ccc(NCc2nc(-c3ccc(Cl)cc3)nn2-c2ccccc2)cc1

inhibition [1] | inhibition [2] | pIC50 [3] | pIC50 [4] | pIC50 [5] | Structure (SMILES)
19% | 72.6% | 4.75 | 6.95 | 5.60 | O=C(NO)c1ccc(NCc2nc(-c3ccccc3)nn2-c2ccccc2)cc1
26% | 65.5% | 5.21 | 6.49 | 5.84 | O=C(NO)c1ccc(NCc2nc(-c3cc4ccccc4s3)nn2-c2ccccc2)cc1
4.3% | 27.6% |  |  |  | CC(C)c1ccc(-c2nc(CNc3ccc(C(=O)NO)cc3)n(-c3ccccc3)n2)cc1
12.4% | 49.8% |  |  |  | Cc1cc(C)cc(-n2nc(-c3ccccc3)nc2CNc2ccc(C(=O)NO)cc2)c1
2.1% | -0.4% |  |  |  | O=C(O)c1ccc(NCc2nc(-c3ccccc3)nn2-c2ccccc2)cc1
32% | 5% |  |  |  | Nc1ccccc1NC(=O)c1ccc(NCc2nc(-c3ccccc3)nn2-c2ccccc2)cc1
20.8% | 70.9% | 5.05 | 6.94 | 5.47 | O=C(NO)c1ccc(NCc2nc(-c3ccc(F)cc3)nn2-c2ccccc2)cc1
16% | 58.6% |  |  |  | O=C(NO)c1ccc(NCc2nc(-c3ccccn3)nn2-c2ccccc2)cc1
17.3% | 52.6% |  |  |  | CC(C)c1ccc(-n2nc(-c3ccccc3)nc2CNc2ccc(C(=O)NO)cc2)cc1
13% | 64.1% | 5.06 | 6.55 | 5.26 | Cc1cccc(-c2nc(CNc3ccc(C(=O)NO)cc3)n(-c3ccccc3)n2)c1
14.7% | 62.3% | 4.86 | 6.17 | 5.36 | O=C(NO)c1ccc(NCc2nc(-c3ccccc3)nn2-c2cccc(Cl)c2)cc1
7.5% | 30.8% |  |  |  | O=C(NO)c1ccc(NCc2nc(-c3ccncc3)nn2-c2ccccc2)cc1
25.9% | 70.3% | < 4.70 | 6.99 | 5.37 | COc1ccc(-n2nc(-c3ccc(O)cc3)nc2CNc2ccc(C(=O)NO)cc2)cc1
26.3% | 72.1% | 5.05 | 7.51 | 5.49 | Cc1ccsc1-c1nc(CNc2ccc(C(=O)NO)cc2)n(-c2ccccc2)n1
-2.6% | -4.4% |  |  |  | NC(=O)c1ccc(NCc2nc(-c3ccccc3)nn2-c2ccccc2)cc1
16.5% | 53.2% |  |  |  | Cc1ccccc1-c1nc(CNc2ccc(C(=O)NO)cc2)n(-c2ccccc2)n1
15.2% | 53.4% |  |  |  | O=C(NO)c1ccc(NCc2nc(-c3ccsc3)nn2-c2ccccc2)cc1
24.6% | 60.7% |  | 6.51 | 5.77 | Cc1ccc(-n2nc(-c3ccccc3)nc2CNc2ccc(C(=O)NO)cc2)cc1
18% | 55.4% |  |  |  | O=C(NO)c1ccc(NCc2nc(-c3ccccc3)nn2-c2ccc(Cl)cc2)cc1
26.2% | 63.4% | 5.15 | 6.90 | 6.05 | COc1ccc(-n2nc(-c3ccccc3)nc2CNc2ccc(C(=O)NO)cc2)cc1
13.2% | 54.6% |  |  |  | CCc1ccc(-c2nc(CNc3ccc(C(=O)NO)cc3)n(-c3ccccc3)n2)cc1
4.1% | 10% |  |  |  | NNC(=O)c1ccc(NCc2nc(-c3ccccc3)nn2-c2ccccc2)cc1
23.7% | 71.1% | 5.20 | 7.26 | 5.68 | O=C(NO)c1ccc(NCc2nc(-c3sccc3Br)nn2-c2ccccc2)cc1
